Columns and labels:
[1] = system: M17 human neuroblastoma cells; assay: Cytotoxicity, M17 human neuroblastoma cells; format: cell-based; settings: for Cytotox (% viable) M17 cells at 1 μM: 1 μM test compound; for Cytotox (% viable) M17 cells at 10 μM: 10 μM test compound
Method: Assay 3. MTS Assay for Cell Viability
Cell viability is determined using the MTS assay. Culture medium is replaced with fresh neurobasal medium plus B27 supplements minus antioxidants. 1/10th volume MTS solution (Cell Titre 96 Aqueous One, Promega Corporation) and incubated at 37° C., 2 hrs. 200 microliter aliquots are measured with a spectrophotometer at 560 nm.

[2] = Toxicity, visual observations in mice; settings: duration and visual observations
[3] = Mice plasma concentration after oral dose; format: in vivo; settings: for Mice plasma concentration: 30 min to 4 h after single or repeat oral dose of 30 mg/kg
Aβ deposits = settings: 9 weeks; for Tg Mice % difference from control in Amyloid plaque abundance / Tg Mice % difference from control in insoluble brain amyloid burden / Tg Mice % difference from control in soluble brain amyloid burden: daily oral gavage 30 mg/kg, 13-14 months old transgenic mice
[4] = system: dityrosine oligomerization; assay: CuTy: inhibition of dityrosine oligomerization; format: biochemical; settings: referenced to in-house standard (set as 100% inhibition)
[5] = biological target: T1, Abeta:Zn (25:50 μM) Synthetic Aggregations (Homo sapiens, UniProt P05067); assay: Disaggregation of Abeta:Zn synthetic aggregates (ThT fluorescence); format: biochemical; settings: for Disaggregation % Aggregate reduction at 5 μM: 5 μM test compound; for EC50: Abeta:Zn 25:50 μM aggregates
T1 construct: PB Compound Mediated Dissolution of Aggregated Abeta 1-42; purchased Keck Laboratory, Yale University School of Medicine
T1 sequence (P05067 672-713 limits assumed): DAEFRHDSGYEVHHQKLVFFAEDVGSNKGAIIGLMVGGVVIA
How it was run: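 ThT signal (excitation 450 nm, emission 480 nm) measured after compounds at final 1, 5, 10, 25 and 50 μM acted 2 h at 37 degrees on preformed aggregates. Those aggregates came from 24 h rotating incubation of 25 μM Abeta1-42, 50 μM ZnCl2 and 50 μM ThT in PBS pH 6.6.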

Aβ 1-42 = biological target: T2, Aβ 1-42 (Homo sapiens, UniProt P05067); assay: Fluorometric H2O2 assay (inhibition of Abeta H2O2 production); format: biochemical; settings: concentration required to inhibit 50% of Abeta H2O2 production; read-out: H2O2 IC50
T2 construct: The reaction solutions contained Aβ 1-42 at concentrations
T2 sequence (P05067 672-713 limits assumed): as above
How it was run: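 Reactions in PBS pH 7.4 at 37 C for 60 min, containing Aβ, copper and test compound. H2O2 output read as fluorescence of HRP-coupled deacetylated DCF. Fluorescence converted to H2O2 concentration via H2O2 standards.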

[6] = system: primary cortical neuronal cultured cells; assay: Test compound cytotoxicity, MTS assay, primary cortical neuronal cultures; format: cell-based, mouse; settings: for Cytotox (% viable) Neuronal cells at 1 μM: 1 μM test compound; for Cytotox (% viable) Neuronal cells at 10 μM: 10 μM test compound
How it was run: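 Primary cortical neurons were cultured five days in Neurobasal/B27, then exposed on day six to compounds (from 2.5 mM DMSO stocks) in medium minus antioxidants, in triplicate for 4 days at 37° C. Viability was measured by MTS, 2 h at 37° C, absorbance at 560 nm.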

With `O=c1c2ccc(I)c(O)c2ncn1CC1CC1` [PB 1120] the “Cytotox (% viable) M17 cells at 1 μM” value [1] was 106.9%, the “Cytotox (% viable) M17 cells at 10 μM” value [1] was 62% and the “Toxicity at 30 mg/kg” value [2] was 10 days, none. The Mice plasma concentration [3] was “Up to 2508 ng/ mL ng/mL”, the “Tg Mice % difference from control in Amyloid plaque abundance” value (Aβ deposits) was “Decrease” and the “Tg Mice % difference from control in insoluble brain amyloid burden” value (Aβ deposits) was “No change”. For the same compound, the “Tg Mice % difference from control in soluble brain amyloid burden” value (Aβ deposits) was “No change”, the “CuTy % inhibition of dityrosine oligomerization” value (“CuTy % inhibition” below) [4] was “CuTy: 25% inhibition” and the “Disaggregation % Aggregate reduction at 5 μM” value [5] was 47.5%. It also gave an EC50 [5] of 5.6 µM and an IC50 (Aβ 1-42) of 0.28 µM.
In the case of `CCc1cnc2c(O)c(I)ccn2c1=O` [PB 1127], the “Cytotox (% viable) M17 cells at 1 μM” value [1] is reported as 82.5%, the “Cytotox (% viable) M17 cells at 10 μM” value [1] is reported as 23.3% and the “Toxicity at 10 mg/kg” value ([2]; 10 mg/kg) is reported as “At 10 mg/kg 10 days, none”. For the same compound, the “Mice plasma concentration at 10 mg/kg” value ([3]; oral dose 10 mg/kg) was “At 10 mg/kg: Up to 7082 ng/ mL ng/mL”, the “Tg Mice effect on brain amyloid burden and plaque at 10 mg/kg” value (Aβ deposits; daily oral gavage 10 mg/kg) was “At 10 mg/kg No effect” and the “CuTy % inhibition” value [4] was 25% inhibit. For the same compound, the “Disaggregation % Aggregate reduction at 5 μM” value [5] was 55%, the EC50 [5] was 4.5 µM and the IC50 (Aβ 1-42) was 0.28 µM.
In the case of `CCCc1cnc2c(O)cccn2c1=O` [PB 1149], the “Cytotox (% viable) Neuronal cells at 1 μM” value [6] is reported as 86.2%, the “Cytotox (% viable) Neuronal cells at 10 μM” value [6] is reported as 12.4% and the “Cytotox (% viable) M17 cells at 1 μM” value [1] is reported as 79.1%. For the same compound, the “Cytotox (% viable) M17 cells at 10 μM” value [1] was 45.2%, the “Toxicity at 30 mg/kg” value [2] was 10 days, none and the Mice plasma concentration [3] was “Up to 690 ng/ml ng/mL”. The “Tg Mice % difference from control in Amyloid plaque abundance” value (Aβ deposits) was −45%, the “Tg Mice % difference from control in insoluble brain amyloid burden” value (Aβ deposits) was “No change” and the “Tg Mice % difference from control in soluble brain amyloid burden” value (Aβ deposits) was “No change”. For the same compound, the “CuTy % inhibition” value [4] was “CuTy: 95% inhibition”, the “Disaggregation % Aggregate reduction at 5 μM” value [5] was 49% and the EC50 [5] was 5 µM. It also gave an IC50 (Aβ 1-42) of 0.3 µM.
With `CCCCNC(=O)c1cnc2c(O)c(I)ccn2c1=O` [PB 1160] the “Cytotox (% viable) M17 cells at 1 μM” value [1] was 85.3%, the “Cytotox (% viable) M17 cells at 10 μM” value [1] was 63.4% and the “Toxicity at 30 mg/kg” value [2] was 10 days, none. For the same compound, the Mice plasma concentration [3] was “Up to 27,598 ng/mL”, the “Tg Mice % difference from control in Amyloid plaque abundance” value (Aβ deposits) was “decrease” and the “Tg Mice % difference from control in insoluble brain amyloid burden” value (Aβ deposits) was “No change”. For the same compound, the “Tg Mice % difference from control in soluble brain amyloid burden” value (Aβ deposits) was −25%, the “CuTy % inhibition” value [4] was “CuTy: 95% inhibition” and the “Disaggregation % Aggregate reduction at 5 μM” value [5] was 56.8%. It also gave an EC50 [5] of 4.05 µM and an IC50 (Aβ 1-42) of 0.75 µM.
With `Br.CNCc1nc2c(O)c(Cl)cc(Cl)c2c(=O)n1C` [PB 1161] the “Cytotox (% viable) Neuronal cells at 1 μM” value [6] was 105.4%, the “Cytotox (% viable) Neuronal cells at 10 μM” value [6] was 103.9% and the “Cytotox (% viable) M17 cells at 1 μM” value [1] was 101.4%. The “Cytotox (% viable) M17 cells at 10 μM” value [1] was 112.5%, the “Toxicity at 30 mg/kg” value [2] was 10 days, none and the Mice plasma concentration [3] was “Up to 510.4 ng/mL”. The “Tg Mice % difference from control in Amyloid plaque abundance” value (Aβ deposits) was −64%, the “Tg Mice % difference from control in insoluble brain amyloid burden” value (Aβ deposits) was “No change” and the “Tg Mice % difference from control in soluble brain amyloid burden” value (Aβ deposits) was “No change”. The “CuTy % inhibition” value [4] was 100% inhib, the “Disaggregation % Aggregate reduction at 5 μM” value [5] was 27% and the EC50 [5] was > 20 µM.
For `O=c1c2c(Cl)cc(Cl)c(O)c2ncn1Cc1ccn2ccnc2c1` [PB 1252], the “Cytotox (% viable) Neuronal cells at 1 μM” value [6] was 94.6%, the “Cytotox (% viable) Neuronal cells at 10 μM” value [6] was 103.1% and the “Cytotox (% viable) M17 cells at 1 μM” value [1] was 105.4%. For the same compound, the “Cytotox (% viable) M17 cells at 10 μM” value [1] was 105.1%, the “Toxicity at 30 mg/kg” value [2] was 10 days, none and the Mice plasma concentration [3] was “Up to 1465.4 ng/mL”. The “CuTy % inhibition” value [4] was “CuTy: 50% inhibition” and the IC50 (Aβ 1-42) was 0.72 µM.
With `O=C(O)CCCn1cnc2c(O)c(Cl)cc(Cl)c2c1=O` [PB 1255] the “Cytotox (% viable) Neuronal cells at 1 μM” value [6] was 97.9%, the “Cytotox (% viable) Neuronal cells at 10 μM” value [6] was 98.0% and the “Cytotox (% viable) M17 cells at 1 μM” value [1] was 109.7%. For the same compound, the “Cytotox (% viable) M17 cells at 10 μM” value [1] was 102.9%, the “Toxicity at 30 mg/kg” value [2] was 10 days, none and the Mice plasma concentration [3] was “Up to 17008 ng/ mL ng/mL”. The “CuTy % inhibition” value [4] was “CuTy: 125% inhibition” and the IC50 (Aβ 1-42) was 0.93 µM.
In the case of `Cn1nccc1-n1cnc2c(O)c(Cl)cc(Cl)c2c1=O` [PB 1262], the “Cytotox (% viable) Neuronal cells at 1 μM” value [6] is reported as 104.6%, the “Cytotox (% viable) Neuronal cells at 10 μM” value [6] is reported as 83.7% and the “Cytotox (% viable) M17 cells at 1 μM” value [1] is reported as 106.5%. The “Cytotox (% viable) M17 cells at 10 μM” value [1] was 94.2%, the “Toxicity at 30 mg/kg” value [2] was 10 days, none (16/11/05) and the Mice plasma concentration [3] was “Up to 7107 ng/ mL ng/mL”. The “CuTy % inhibition” value [4] was “CuTy No effect” and the IC50 (Aβ 1-42) was 0.94 µM.
For `O=c1c2c(Cl)cc(Cl)c(O)c2ncn1CC1CC1` [PB-1076], the “Cytotox (% viable) Neuronal cells at 1 μM” value [6] was 116%, the “Cytotox (% viable) Neuronal cells at 10 μM” value [6] was 105% and the “Cytotox (% viable) M17 cells at 1 μM” value [1] was 96.2%. For the same compound, the “Cytotox (% viable) M17 cells at 10 μM” value [1] was 76.8%, the “Toxicity at 30 mg/kg” value [2] was 11 days, none and the Mice plasma concentration [3] was “Up to 2698 ng/ mL in mice ng/mL”. The “Tg Mice % difference from control in Amyloid plaque abundance” value (Aβ deposits) was −29%, the “Tg Mice % difference from control in insoluble brain amyloid burden” value (Aβ deposits) was −26% and the “Tg Mice % difference from control in soluble brain amyloid burden” value (Aβ deposits) was −37%. The “CuTy % inhibition” value [4] was 100% inhibit, the “Disaggregation % Aggregate reduction at 5 μM” value [5] was 15.1% and the EC50 [5] was > 20 µM.
For `O=c1c2c(Cl)cc(Cl)c(O)c2ncn1Cc1ccccn1` [PB-1077], the “Cytotox (% viable) Neuronal cells at 1 μM” value [6] was 99%, the “Cytotox (% viable) Neuronal cells at 10 μM” value [6] was 98% and the “Cytotox (% viable) M17 cells at 1 μM” value [1] was 97.7%. The “Cytotox (% viable) M17 cells at 10 μM” value [1] was 91%, the “Toxicity at 30 mg/kg” value [2] was 10 days, none and the Mice plasma concentration [3] was “Up to 984 ng/ mL in mice ng/mL”. For the same compound, the “Tg Mice % difference from control in Amyloid plaque abundance” value (Aβ deposits) was −30%, the “Tg Mice % difference from control in insoluble brain amyloid burden” value (Aβ deposits) was “No change” and the “Tg Mice % difference from control in soluble brain amyloid burden” value (Aβ deposits) was “No change”. For the same compound, the “CuTy % inhibition” value [4] was “CuTy: 50% inhibition”, the “Disaggregation % Aggregate reduction at 5 μM” value [5] was 24% and the EC50 [5] was > 20 µM.
In the case of `Cc1nc(Cn2cnc3c(O)c(Cl)cc(Cl)c3c2=O)cs1` [PB-1084], the “Cytotox (% viable) Neuronal cells at 1 μM” value [6] is reported as 100%, the “Cytotox (% viable) Neuronal cells at 10 μM” value [6] is reported as 93% and the “Cytotox (% viable) M17 cells at 1 μM” value [1] is reported as 97%. The “Cytotox (% viable) M17 cells at 10 μM” value [1] was 95.7%, the “Toxicity at 30 mg/kg” value [2] was 10 days, none and the Mice plasma concentration [3] was “Up to 2439 ng/ mL ng/mL”. For the same compound, the “Tg Mice % difference from control in Amyloid plaque abundance” value (Aβ deposits) was “decrease”, the “Tg Mice % difference from control in insoluble brain amyloid burden” value (Aβ deposits) was “No change” and the “Tg Mice % difference from control in soluble brain amyloid burden” value (Aβ deposits) was −29%. For the same compound, the “CuTy % inhibition” value [4] was “CuTy: 75% inhibition”, the “Disaggregation % Aggregate reduction at 5 μM” value [5] was 23.4% and the EC50 [5] was 40.7 µM.
In the case of `Cc1noc(C)c1Cn1cnc2c(O)c(Cl)cc(Cl)c2c1=O` [PB-1085], the “Cytotox (% viable) Neuronal cells at 1 μM” value [6] is reported as 99%, the “Cytotox (% viable) Neuronal cells at 10 μM” value [6] is reported as 72% and the “Cytotox (% viable) M17 cells at 1 μM” value [1] is reported as 104.9%. The “Cytotox (% viable) M17 cells at 10 μM” value [1] was 76.2%, the “Toxicity at 30 mg/kg” value [2] was 10 days, none and the Mice plasma concentration [3] was “Up to 3644 ng/ mL ng/mL”. For the same compound, the “Tg Mice % difference from control in Amyloid plaque abundance” value (Aβ deposits) was −43%, the “Tg Mice % difference from control in insoluble brain amyloid burden” value (Aβ deposits) was −34% and the “Tg Mice % difference from control in soluble brain amyloid burden” value (Aβ deposits) was “increase”. The “CuTy % inhibition” value [4] was “CuTy: 90% inhibition”, the “Disaggregation % Aggregate reduction at 5 μM” value [5] was 25% and the EC50 [5] was > 20 µM.

From patent US9163018B2, “Method of treatment of age-related macular degeneration (AMD)” (Prana Biotechnology Limited, priority 2006, dated 2015)
